In US12492373B2, “Production method for nerve tissue” (Racthera Co., Ltd., priority 2014, dated 2025):

Tests used:
[1] = system: human iPS cells (1231A3 strain); assay: Immunostaining of aggregate sections for retinal tissue markers Chx10, Rx; assay type: cell-based; conditions: day 20
Method: Here, as step 3, culturing was performed under the following condition 1 and condition 2: Under condition 1(+BMP), on day 6 after the start of suspension culturing, the medium was changed to a medium free of Y27632 and containing human recombinant BMP4 (manufactured by R&D) such that the final concentration of exogenous human recombinant BMP4 was 1.5 nM (55 ng/ml) (FIG. 6B, D). Under condition 2(−BMP), on day 6 after the start of suspension culturing, a half amount of the medium was changed to a medium free of Y27632 and free of a BMP signal transduction pathway activating substance, without adding exogenous human recombinant BMP4 (FIG. 6A, C).
The thus-prepared cell aggregates on day 23 after the start of suspension culturing, which were produced from the above iPS cells that underwent a preconditioning treatment in step 1 as a starting material were fixed with 4% para-formaldehyde to prepare frozen sections. These frozen sections were immunostained for Chx10 (anti-Chx10 antibody, Exalpha, sheep), which is one of the retinal tissue markers, or Rx (anti-Rx antibody, Takara, guinea pig), which is one of the retinal tissue markers. These immunostained sections were observed under an inverted fluorescence microscope.
Cell aggregate were prepared according to the method described in Example 8 under conditions in which human iPS cells using StemFit medium as a feeder-free medium were used as a starting material, TGFβR inhibiting substance (SB431542) or BMPR inhibiting substance (LDN193189) was used in step 1, Shh signal transduction pathway activating substance was used in step 2, and BMP signal transduction pathway activating substance was added or not added in step 3. Neural tissues were formed in all the aggregates formed under all these conditions on day 23 after the start of suspension culturing. The above cell aggregates were fixed with 4% para-formaldehyde to prepare frozen sections. These frozen sections were immunostained for Chx10 (anti-Chx10 antibody, Exalpha, sheep), which is one of the retinal tissue markers, or Rx (anti-Rx antibody, Takara, guinea pig), which is one of the retinal tissue markers. These immunostained sections were observed under an fluorescence microscope. […] Furthermore, it was found from the analysis of serial sections that, in a neural tissue having a high (not less than 95%) proportion of Chx10-positive cells, Rx is also strongly positive (FIG. 9B, D, F, H).
Cell aggregates were prepared according to the method described in Example 10 by using, as a starting material, human iPS cells using Essential 8 medium as a feeder-free culturing, under conditions that TGFβR inhibiting substance (SB431542) are used in step 1, a Shh signal transduction pathway activating substance are used in step 2, and a BMP signal transduction pathway activating substance are added or are not added in step 3. The cell aggregates on day 18 after the start of suspension culturing were each fixed with 4% para-formaldehyde to prepare frozen section. These frozen sections were immunostained for Chx10 (anti-Chx10 antibody, Exalpha, sheep), which is one of the retinal tissue markers, or Rx (anti-Rx antibody, Takara, guinea pig), which is one of the retinal tissue markers, and observed under a fluorescence microscope. […] Furthermore, it was found from the analysis of serial sections that, in a neural tissue having a high (not less than 95%) proportion of Chx10-positive cells, Rx is also strongly positive. […]
A Cell aggregate was formed on day 18 after the start of suspension culturing under every conditions, and a neural tissue was formed (FIG. 14, upper panel). The above cell aggregates on day 18 after the start of suspension culturing were each fixed with 4% para-formaldehyde to prepare frozen section. […]

[2] = system: human iPS cells (1231A3 strain); assay: Neural tissue / neuroepithelium formation in cell aggregates, bright field observation; assay type: cell-based; conditions: day 20
Method: The above human iPS cells were treated with the cell dispersion solution by using TrypLE Select (Life Technologies), further dispersed into single cells by pipetting operation, and the above human iPS cells dispersed into single cells were suspended in 100 μl of a serum-free medium at 1.2×10^4 cells per well of a non-cell-adhesive 96-well culture plate ([…], manufactured by SUMITOMO BAKELITE), and subjected to suspension culturing at 37° C., 5% CO2. As the serum-free medium (gfCDM+KSR) therefor, a serum-free medium which is a 1:1 mixture of F-12 medium and IMDM medium supplemented with 10% KSR, 450 μM 1-monothioglycerol, 1× Chemically defined lipid concentrate was used. At the time of the start of suspension culturing (day 0 after the start of suspension culturing, start of step 2), Y27632 (final concentration 20 μM) was added to the above serum-free medium. By day 2 after the start of suspension culturing, cell aggregates were formed under both conditions with preconditioning and conditions without preconditioning (step 2 completed, step 3 start). On day 3 after the start of suspension culturing, a serum-free medium (50 μl) free of Y27632 was added. On day 6 or later after the start of suspension culturing, a half amount of the medium was changed to the above serum-free medium free of Y27632 once per 2-4 days. In the half-medium change operation, a half volume, namely 75 μl, of the medium in the culture vessel was discarded, the above fresh serum-free medium (75 μl) was added to make the total medium amount 150 μl. […]
At the time of the start of suspension culturing (day 0 after the start of suspension culturing, start of step 2), the cells were cultured under the following 2 conditions including condition 1 and condition 2. As condition 1(+SAG), at the time of the start of suspension culturing, Y27632 (final concentration 20 μM) and SAG (Shh signal transduction pathway activating substance, 300 nM) were added to the above serum-free medium. As condition 2(−SAG), at the time of the start of suspension culturing, Y27632 (final concentration 20 μM) was added to the above serum-free medium and SAG was not added. By day 2 after the start of suspension culturing, cell aggregates were formed (step 2 completed, step 3 start) under both conditions. On day 3 after the start of suspension culturing, a medium (50 μl) free of Y27632, SAG and containing human recombinant BMP4 (manufactured by R&D) was added such that the final concentration of exogenous human recombinant BMP4 was 1.5 nM (55 ng/ml). On day 6 after the start of suspension culturing, a half amount of the medium was changed with a serum-free medium free of Y27632, SAG and human recombinant BMP4. Thereafter, a half amount of the medium was changed, once every 2-4 days, with the above serum-free medium free of Y27632, SAG, and human recombinant BMP4.
The thus-prepared cells were subjected to bright field observation on day 18 after the start of suspension culturing under an inverted microscope (KEYENCE) (FIG. 15).
At the time of the start of suspension culturing (day 0 after the start of suspension culturing, start of step 2), the cells were cultured under the following 2 conditions including condition 1 and condition 2. As condition 1(+SAG), at the time of the start of suspension culturing, Y27632 (final concentration 20 μM) and SAG (Shh signal transduction pathway activating substance, final concentration 30 nM) were added to the above serum-free medium. As condition 2(−SAG), at the time of the start of suspension culturing, Y27632 (final concentration 20 μM) was added to the above serum-free medium and SAG was not added. By day 2 after the start of suspension culturing, cell aggregates were formed under both conditions (step 2 completed, step 3 start). […]

[3] = A83-01 0.5 μM 1 day in step 1, SAG 30 nM in step 2, BMP4 1.5 nM on day 3

| Compound | proportion of Chx10-positive cells in the total cells ([1]; A83-01 0.5 μM and SAG 300 nM in step 1, substance added in step 2 (SAG 30 nM, Purmorphamine 0.2 μM or human recombinant Shh 300 ng/ml), BMP4 1.5 nM on day 3) | proportion of Chx10-positive cells in the total cells [1, 3] | cell aggregate and neural tissue formation [2, 3] | cell aggregate and neural tissue formation ([2]; step 1 for 1 day: A83-01 0.5 μM alone or with SAG 300 nM, Purmorphamine 0.2 μM, or human recombinant Shh 50 ng/ml or 300 ng/ml, SAG 30 nM in step 2, BMP4 1.5 nM on day 3) |
| --- | --- | --- | --- | --- |
| c1ccc2c(Oc3nc(Nc4ccc(N5CCOCC5)cc4)c4ncn(C5CCCCC5)c4n3)cccc2c1 [Purmorphamine, 9-cyclohexyl-N-[4-(4-morpholinyl)phenyl]-2-(1-naphthalenyloxy)-9H-purin-6-amine] | about 90% |  |  |  |
| Cc1cccc(-c2nn(C(=S)Nc3ccccc3)cc2-c2ccnc3ccccc23)n1 [A83-01, 3-(6-methyl-2-pyridinyl)-N-phenyl-4-(4-quinolinyl)-1H-pyrazole-1-carbothioamide] |  | about 20% | a neural tissue can be formed efficiently | a neural tissue can be produced efficiently |
